# Active and inactive are the calls of the source.
# Columns and labels:
# [1] = cells; assay type: functional
# [2] = microbe, parasite or virus in culture; assay type: functional; details: Mycobacterium tuberculosis
# [3] = molecular target: FAD-linked sulfhydryl oxidase ALR (Homo sapiens, UniProt P55789); assay: ALR-catalysed DTT oxidation blockers – biochemical, H2O2 detection, luminescence, cherry-pick, dose response (AID 493248)
# [4] = viability of PTEN-deleted HCT116 cells – cell-based, HCT116 PTEN knockout, dose response (AID 1047); assay type: functional;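 also: HCT116 colon tumor cells with PTEN knocked out; cells exposed to compound for 60 hours before readout; potency for loss of cell viability measured by luminescence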
# [5] = viability of HCT116 lacking mutant beta-catenin – cell-based, human colon tumor, dose response (AID 1045); assay type: functional;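 also: HCT116 colon tumor cells with beta catenin knocked out; cells exposed to compound for 60 hours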
# [6] = molecular target: T1, Caspase-6 (Homo sapiens, UniProt P55212); assay: inhibition of CASP6 peptide cleavage – biochemical, VEID-R110 fluorescence, cherry-pick, dose response (AID 720632)
# T1 sequence (P55212 whole entry): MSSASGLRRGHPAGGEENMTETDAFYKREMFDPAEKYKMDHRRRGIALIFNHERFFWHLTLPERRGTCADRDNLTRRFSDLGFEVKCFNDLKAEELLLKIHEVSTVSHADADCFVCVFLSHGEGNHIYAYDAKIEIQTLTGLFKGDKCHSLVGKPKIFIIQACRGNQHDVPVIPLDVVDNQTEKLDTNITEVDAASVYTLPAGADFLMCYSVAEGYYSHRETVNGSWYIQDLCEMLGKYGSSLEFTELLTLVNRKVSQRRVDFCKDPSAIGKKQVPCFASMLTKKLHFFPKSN
# [7] = molecular target: T2, High affinity choline transporter 1 (Homo sapiens, UniProt Q9GZV3); assay: human choline transporter blockers, potency – cell-based, 5-point CRC, membrane potential dye, dose response (AID 504840); assay type: functional
# T2 sequence (Q9GZV3 whole entry): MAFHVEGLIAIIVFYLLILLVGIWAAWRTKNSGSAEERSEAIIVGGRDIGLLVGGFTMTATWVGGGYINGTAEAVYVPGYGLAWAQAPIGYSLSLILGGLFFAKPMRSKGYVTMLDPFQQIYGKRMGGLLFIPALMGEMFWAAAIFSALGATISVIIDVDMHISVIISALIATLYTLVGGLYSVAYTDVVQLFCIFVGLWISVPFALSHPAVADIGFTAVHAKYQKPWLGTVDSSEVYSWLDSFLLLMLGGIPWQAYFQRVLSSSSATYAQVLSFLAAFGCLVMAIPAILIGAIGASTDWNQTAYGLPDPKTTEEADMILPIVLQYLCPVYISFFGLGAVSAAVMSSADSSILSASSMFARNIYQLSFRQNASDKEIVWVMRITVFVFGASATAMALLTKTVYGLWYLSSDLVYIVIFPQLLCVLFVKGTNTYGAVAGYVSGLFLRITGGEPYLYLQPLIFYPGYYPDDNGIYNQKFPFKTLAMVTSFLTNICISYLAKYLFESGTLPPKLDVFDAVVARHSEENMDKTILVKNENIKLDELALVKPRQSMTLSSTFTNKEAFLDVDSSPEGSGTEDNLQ
# [8] = molecular target: T3, Polyadenylate-binding protein 1 (Homo sapiens, UniProt P11940); assay: MLLE domain peptide-binding blockers, IC50 – biochemical, fluorescence polarization, FITC-PAM2 peptide, dose response (AID 602259); assay type: functional; details: read-out: IC50_Mean
# T3 sequence (P11940 whole entry, the tested form may be a part): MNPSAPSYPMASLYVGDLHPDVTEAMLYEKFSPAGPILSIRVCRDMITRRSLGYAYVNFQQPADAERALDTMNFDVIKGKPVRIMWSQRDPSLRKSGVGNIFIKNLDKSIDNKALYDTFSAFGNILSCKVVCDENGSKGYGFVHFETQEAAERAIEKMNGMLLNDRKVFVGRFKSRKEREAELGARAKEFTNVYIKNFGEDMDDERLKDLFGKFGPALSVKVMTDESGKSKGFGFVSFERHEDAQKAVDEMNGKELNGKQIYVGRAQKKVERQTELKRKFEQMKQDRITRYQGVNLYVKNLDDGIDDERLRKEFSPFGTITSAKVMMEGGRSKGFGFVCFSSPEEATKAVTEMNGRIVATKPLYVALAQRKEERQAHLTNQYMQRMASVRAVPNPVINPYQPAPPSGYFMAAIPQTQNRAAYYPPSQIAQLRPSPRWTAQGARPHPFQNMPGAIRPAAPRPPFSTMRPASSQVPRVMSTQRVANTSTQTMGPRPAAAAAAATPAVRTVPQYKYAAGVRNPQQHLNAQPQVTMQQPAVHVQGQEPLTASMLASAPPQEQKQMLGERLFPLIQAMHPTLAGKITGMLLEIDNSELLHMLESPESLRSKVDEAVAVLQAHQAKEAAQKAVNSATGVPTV
# [9] = molecular target: T3, Polyadenylate-binding protein 1; assay: MLLE binding blockers, Cy5 peptide tracer – biochemical, fluorescence polarization, Cy5-PAM2 peptide, secondary, miRNA deadenylation inhibitor project, dose response (AID 602260); assay type: functional; details: read-out: IC50_Mean
# [10] = NIH3T3 cell viability loss – ATP luminescence, mouse fibroblasts, counter-screen, dose response (AID 2010); assay type: functional, cell-based;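 also: cells exposed to compound for about 90 hours before reading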
# [11] = Trypanosoma cruzi growth suppression in host cells – NIH3T3 host cells, beta-gal luminescence, confirmation (AID 2044); assay type: functional, cell-based;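 also: intracellular parasites grown in NIH/3T3 mouse fibroblasts as host cells; luminescent beta-galactosidase reporter signal from transgenic T. cruzi replicating inside host cells; inhibitors lower the luminescence signal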
# [12] = molecular target: Glucose-6-phosphate 1-dehydrogenase (Homo sapiens, UniProt P11413); assay: inhibition of Homo sapiens G6PD, dose series – biochemical, fluorescence, selectivity assay for P. falciparum G6PD inhibitor project, dose response (AID 504792); assay type: functional
# Chain of Glucose-6-phosphate 1-dehydrogenase (P11413 whole entry): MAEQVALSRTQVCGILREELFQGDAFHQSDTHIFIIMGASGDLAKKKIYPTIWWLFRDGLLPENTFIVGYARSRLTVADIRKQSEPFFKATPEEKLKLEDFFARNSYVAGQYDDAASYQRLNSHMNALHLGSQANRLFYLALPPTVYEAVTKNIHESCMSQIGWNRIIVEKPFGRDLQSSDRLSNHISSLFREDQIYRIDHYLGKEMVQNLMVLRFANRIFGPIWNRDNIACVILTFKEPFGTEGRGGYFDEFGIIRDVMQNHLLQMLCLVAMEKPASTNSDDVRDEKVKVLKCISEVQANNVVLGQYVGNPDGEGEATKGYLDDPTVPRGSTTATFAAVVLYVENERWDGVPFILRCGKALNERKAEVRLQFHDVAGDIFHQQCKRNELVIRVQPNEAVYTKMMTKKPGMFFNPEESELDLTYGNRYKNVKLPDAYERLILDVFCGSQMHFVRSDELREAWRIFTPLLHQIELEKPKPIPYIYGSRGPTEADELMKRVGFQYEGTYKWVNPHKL
# [13] = molecular target: T4, Leucine aminopeptidase (Plasmodium falciparum 3D7, UniProt Q8IL11); assay: P. falciparum M17LAP inhibitors, primary screen, biochemical, fluorogenic H-Leu-NHMec substrate, 1536-well (AID 1619); assay type: functional
# T4 sequence (Q8IL11 whole entry): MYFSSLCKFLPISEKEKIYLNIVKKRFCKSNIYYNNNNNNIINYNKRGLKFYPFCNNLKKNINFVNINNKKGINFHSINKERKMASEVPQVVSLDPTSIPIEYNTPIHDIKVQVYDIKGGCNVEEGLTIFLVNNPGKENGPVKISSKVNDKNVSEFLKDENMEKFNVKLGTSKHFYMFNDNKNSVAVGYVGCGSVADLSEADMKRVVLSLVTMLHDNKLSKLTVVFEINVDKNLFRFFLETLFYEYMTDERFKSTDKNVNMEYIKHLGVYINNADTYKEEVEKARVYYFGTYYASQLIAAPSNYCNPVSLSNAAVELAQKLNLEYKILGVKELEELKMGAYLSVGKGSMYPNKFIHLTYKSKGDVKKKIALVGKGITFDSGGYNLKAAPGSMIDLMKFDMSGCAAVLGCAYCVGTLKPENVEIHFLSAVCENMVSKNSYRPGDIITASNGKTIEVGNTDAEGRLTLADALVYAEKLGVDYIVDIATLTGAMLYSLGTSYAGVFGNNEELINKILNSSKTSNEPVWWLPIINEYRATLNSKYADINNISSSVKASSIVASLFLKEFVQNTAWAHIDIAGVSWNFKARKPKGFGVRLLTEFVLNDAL
# [14] = molecular target: T5, Calpain-2 catalytic subunit (Sus scrofa, UniProt P43367); assay: m-calpain protease blockers, concentration series – biochemical, fluorogenic peptide substrate, dose response (AID 1420); assay type: functional
# T5 sequence (P43367 whole entry): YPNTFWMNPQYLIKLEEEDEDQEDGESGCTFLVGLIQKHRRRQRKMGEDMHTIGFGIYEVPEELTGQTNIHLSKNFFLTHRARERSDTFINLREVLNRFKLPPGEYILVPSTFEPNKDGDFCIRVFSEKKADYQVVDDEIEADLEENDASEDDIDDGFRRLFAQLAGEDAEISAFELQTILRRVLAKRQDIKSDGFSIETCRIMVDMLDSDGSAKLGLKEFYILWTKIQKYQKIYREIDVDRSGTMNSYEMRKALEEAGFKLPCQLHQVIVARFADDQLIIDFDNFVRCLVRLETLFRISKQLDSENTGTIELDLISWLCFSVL
# [15] = alpha-synuclein stem-loop luciferase translation blockers – H4 neuroglioma cells, luminescence, confirmation (AID 1988); assay type: functional, cell-based
# [16] = system: Vero; assay: cells; assay type: functional; details: Chlorocebus sabaeus
# [17] = luciferase reporter signal suppression in cells – H4 neuroglioma cells, luminescence, dose response (AID 1990); assay type: functional, cell-based
# Chain of FAD-linked sulfhydryl oxidase ALR (P55789 whole entry): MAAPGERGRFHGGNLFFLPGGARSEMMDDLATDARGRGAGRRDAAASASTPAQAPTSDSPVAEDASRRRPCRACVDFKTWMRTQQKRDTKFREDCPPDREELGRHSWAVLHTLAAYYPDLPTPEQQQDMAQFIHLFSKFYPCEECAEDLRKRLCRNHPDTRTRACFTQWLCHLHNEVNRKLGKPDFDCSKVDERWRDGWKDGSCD
smiles,measurement,setting,value
Cc1ccc(-c2cc(C(F)(F)F)n3nc(C(=O)NCCCn4ccnc4)cc3n2)cc1C,IC50,[1],> 50 µM (active)
same,CC50,[2],> 40 µM (active)
Cc1ccc(CSC2=NCCN2C(=O)c2ccco2)cc1,AC50,[3],2.85 µM (active)
O=C(NN/C=C1\C(=O)N(Cc2ccccc2)C(=O)c2ccccc21)c1cccnc1,AC50,[3],3.35 µM (active)
Cc1nc(-c2ccc(NC(=O)CC(C)C)cc2)cs1,AC50,[3],2.38 µM (active)
Cc1ccc(CSc2nc3ccncc3n2CC(=O)Nc2cc(C)cc(C)c2)cc1,EC50,[4],26.3 µM (active)
same,EC50,[5],30.7 µM (active)
O=C(Nc1cccc(Cl)c1)c1cccc(N2C(=O)C3CC=CCC3C2=O)c1 (stereo not given),AC50,[6],9.42 µM (active)
Cc1ccnc(NS(=O)(=O)c2ccc(NC(=O)c3ccc(Cl)cc3[N+](=O)[O-])cc2)n1,IC50,[7],13.2 µM (active)
O=C(NC(=S)NC(CO)Cc1ccccc1)c1ccc(F)cc1 (stereo not given),IC50,[8],> 66 µM (inactive)
same,IC50,[9],> 66 µM (inactive)
O=S(=O)(c1ccc2[nH]c(-c3ccccc3)nc2c1)N1CCN(c2ccc(Cl)cc2)CC1,EC50,[4],4.83 µM (active)
same,EC50,[5],5.15 µM (active)
O=C(NC(N=C(S)Nc1c(Cl)cccc1Cl)C(Cl)(Cl)Cl)c1cccc([N+](=O)[O-])c1 (stereo not given),EC50,[10],> 60 µM (not active)
same,EC50,[4],12.4 µM (active)
same,EC50,[5],16.2 µM (active)
same,EC50,[11],2.22 µM (active)
O=C(CN1C(=O)C2C3C=CC(C3)C2C1=O)OCC(=O)c1ccc([N+](=O)[O-])cc1 (stereo not given),IC50,[12],> 80 µM (inactive)
CC(OC(=O)c1oc2ccccc2c1CSC1CCCCC1)C(=O)NC(N)=O (stereo not given),EC50,[4],24.9 µM (active)
same,EC50,[5],55.1 µM (active)
Nc1n[nH]c(N)c1N=Nc1ccc(F)cc1,AC50,[3],2.29 µM (active)
same,IC50,[13],8.11 µM (active)
same,IC50,[14],30.8 µM (not active)
O=C1NC(c2ccccc2)=C(c2ccc3ccccc3n2)C(c2ccncc2)N1 (stereo not given),IC50,[7],4.57 µM (active)
Fc1ccc(CN2CC[C@H]3C=CCc4cccc(c43)C2)cc1,IC50,[8],> 66 µM (inactive)
same,IC50,[9],> 66 µM (inactive)
NC(=O)c1oc2ccccc2c1NC(=O)c1ccc([N+](=O)[O-])o1,EC50,[15],4.08 µM (active)
same,CC50,[16],5.74 µM (active)
same,EC50,[17],8.49 µM (active)
O=C1/C(=C/c2cccc(Cl)c2)SC(=S)N1CCC(=O)N1CCCCC1CCO (stereo not given),CC50,[16],19.9 µM (active)
